Earlier results on two compounds are cited in patent US6369115B1, “Stabilized powder formulations” (Dura Pharmaceuticals, Inc., priority 2000, dated 2002).

The structures appear in SMILES notation.

In the case of `COc1ccc(CC(C)NCC(O)c2ccc(O)c(NC=O)c2)cc1` (centres unmarked) [Formoterol, N-[2-hydroxy-5-[1-hydroxy-2-[[2-(4-methoxyphenyl)-1-methylethyl]amino]ethyl]phenyl]formamide], the solubility in water result is on record as “soluble in water”. `CCC(=O)O[C@]1(C(=O)SCF)[C@H](C)C[C@H]2[C@@H]3C[C@H](F)C4=CC(=O)C=C[C@]4(C)[C@@]3(F)[C@@H](O)C[C@@]21C` [fluticasone propionate, (6 alpha, 11 beta, 16 alpha, 17 alpha)-6,9,-difluoro-11-hydroxy-16-methyl-3-oxo-17-(1-oxopropoxy)androsta-1,4-diene-17-carbothioic acid, S-fluoromethyl ester]: the solubility in water entry is reported as “insoluble in water”.
